Experimental data published in USH810H, “Biologically active amides” (priority 1976, dated 1990).

Test system: isolated mouse vas deferens
Type: cell-based
Experimental: The compounds were examined for their ability to inhibit neurally evoked contractions of the isolated mouse vas deferens preparation (method of Hughes et al, Brain Research, 88 (1975) 296, using pulses at 0.1 Hz).
The heights of the five contractions that immediately preceded the addition of the first "dose" of test compound were measured and their mean calculated. The resultant mean contraction associated with a particular bath concentration of test compound was calculated from the heights of the 6th, 7th, 8th, 9th and 10th contractions after the addition of the appropriate "dose" of test compound, i.e. the five contractions that immediately preceded the subsequent "dose" or washout.
Generally at least two cumulative dose response curves were constructed and a mean D50 calculated.

| SMILES | Relative Potency (Morphine) (RP=antilog[logD50(MORPHINE) - logD50(TEST COMPOUND)], morphine = 1.0) | Reversal of the inhibition of the contractions by naloxone |
| --- | --- | --- |
| COC(=O)[C@H](CCSC)NC(=O)[C@H](Cc1ccccc1)NC(=O)CNC(=O)[C@@H](C)NC(=O)[C@@H](N)Cc1ccc(O)cc1 [5(b), H.Tyr. --D-Ala.Gly.Phe.Met.OMe] | 94 |  |
| CN1CC[C@]23c4c5ccc(O)c4O[C@H]2[C@@H](O)C=C[C@H]3[C@H]1C5 [Morphine] |  | Reversal of the inhibition of the contractions was effected |
